Results reported in patent publication US11083724B2, “Rimegepant for CGRP related disorders” (Biohaven Pharmaceutical Holding Company Ltd., priority 2018, dated 2021).

Key:
[1] = test system: subjects with Acute Migraines; test: Pooled adverse event and liver function test data, Studies 301, 302 and 303; assay type: in vivo, human; settings: for bilirubin elevations > 2 × ULN: across Studies 301, 302 and 303
[2] = test system: subjects with Acute Migraines; test: Study 303 (BHV3000-303, NCT03461757): Phase 3 double-blind placebo-controlled trial, rimegepant 75 mg ODT, acute treatment of migraine; assay type: in vivo, human
Protocol: Clinical Trial—BHV3000-303: Phase 3: Double-Blind, Randomized, Placebo-Controlled, Safety and Efficacy Trial of BHV-3000 (Rimegepant) Orally Discintegrating Tablet (ODT) for the Acute Treatment of Migraine (ClinicalTrials.gov Identifier: NCT03461757) A phase 3 clinical study was conducted with 1812 participants, as follows. The purpose of this study is to compare the efficacy of BHV-3000 (rimegepant ODT) versus placebo in subjects with Acute Migraines. Study Design • Study Type: Interventional (Clinical Trial) • Actual Enrollment: 1812 participants • Allocation: Randomized • Intervention Model: Parallel Assignment • Masking: Triple (Participant, Care Provider, Investigator) • Primary Purpose: Treatment • Official Title: BHV3000-303: Phase 3, Double-Blind, Randomized, Placebo Controlled, Safety and Efficacy Trial of BHV-3000 (Rimegepant) Orally Disintegrating Tablet (ODT) for the Acute Treatment of Migraine • Actual Study Start Date: Feb. 27, 2018 • Actual Primary Completion Date: Oct. 8, 2018 • Actual Study Completion Date: Oct. 15, 2018 Arms and Interventions Outcome Measures Primary Outcome Measures: 1. Pain freedom of rimegepant compared with placebo in the acute treatment of migraine will be measured using the number of evaluable subjects that report no pain at 2 hours post-dose. [Time Frame: Two hours post dose] Pain will be measured on a 4 point Likert scale (0=none, 1=mild, 2=moderate, 3=severe) 2. Freedom from the most bothersome symptom (MBS) of rimegepant compared with placebo will be measured using the number of evaluable subjects that report the absence of their MBS at 2 hours post-dose. [Time Frame: Two hours post dose] The MBS (nausea, phonophobia or photophobia) will measured using a binary scale (0=absent, 1=present). Secondary Outcome Measures: 1. To measure rimegepant compared to placebo on Pain Relief, at 2 hours post-dose, that report a pain level of moderate or severe at baseline and then report a pain level of none or mild. [Time Frame: 2 hours post-dose] Pain Relief as measured by a 4 point numeric rating scale (None, Mild, Moderate, Severe) 2. Functional disability scale [Time Frame: 2 hour post-dose] Subjects self-report “normal” on the functional disability scale 3. […] [Time Frame: 2 hours-24 hours post-dose] Sustained Pain Relief as measured by a 4 point numeric rating scale (None, Mild, Moderate, Severe) 4. […] [Time Frame: 2 to 24 hours post dose] Most bothersome symptom 5. To measure rimegepant compared to placebo on the probability of requiring rescue medication will be assessed using the number of subjects that take rescue medication within […] administration of study medication (BHV3000 or placebo). [Time Frame: up to 24 hours post-dose] Requiring Rescue Medication 6. Sustained ability to function at a normal level as measured by the Functional disability scale [Time Frame: 2 to 24 hours post dose] Subjects self-report “normal” on the functional disability scale 7. […] [Time Frame: 2 hours-48 hours post-dose] Sustained Pain Relief as measured by a 4 point numeric rating scale (None, Mild, Moderate, Severe) 8. Rimegepant compared to placebo on pain freedom from most bothersome symptom from 2-48 hours post dose. [Time Frame: 2 to 48 hours post dose] Most bothersome symptom 9. Sustained ability to function at a normal level as measured by the Functional disability scale [Time Frame: 2 to 48 hours post dose] Subjects self-report “normal” on the functional disability scale 10. Rimegepant compared to placebo by tabulating the number of subjects that report the absence of photophobia at 2 hours post-dose in the subset of subjects that reported the presence of photophobia at headache baseline [Time Frame: 2 hours post-dose] Freedom from Photophobia 11. Functional disability scale [Time Frame: 90 minutes post dose] Subjects self-report “normal” on the functional disability scale 12. […] [Time Frame: 90 minutes post dose] Pain Relief as measured by a 4 point numeric rating scale (None, Mild, Moderate, Severe) 13. […]

[3] = pooled Studies 301, 302, 303, n = 1,771
[4] = pooled Studies 301, 302, 303, n = 1,771, AST elevation, not drug-related
[5] = pooled Studies 301, 302, 303, within 48 hours post-dose, n = 1,771
[6] = Study 303, n = 669, exploratory
[7] = Study 303, single 75 mg ODT, N = 669

For `N[C@@H]1c2cccnc2[C@H](OC(=O)N2CCC(n3c(=O)[nH]c4ncccc43)CC2)CC[C@H]1c1cccc(F)c1F` [Rimegepant, [(5S,6S,9R)-5-amino-6-(2,3-difluorophenyl)-6,7,8,9-tetrahydro-5H-cyclohepta[b]pyridin-9-yl] 4-(2-oxo-3H-imidazo[4,5-b]pyridin-1-yl)piperidine-1-carboxylate], the “bilirubin elevations > 2 × ULN” value [1] was “*AST/ALT Categories are not mutually exclusive; No bilirubin elevations > 2 × ULN across Studies 301, 302 and 303”, the “bilirubin elevations > 2 × ULN” value ([1]; listed as rimegepant) was “no patients” and the “drug-related Serious Adverse Events (SAEs)” value ([1]; pooled Studies 301, 302, 303) was “**No drug-related Serious Adverse Events (SAEs). 2 of the subjects with SAE in rimegepant group and 1 in placebo group had not been dosed before onset of SAE”. For the same molecule, the “ALT or AST >3 × ULN, number of subjects” value [1, 3] was 2, the “ALT or AST >3 × ULN, percent of subjects” value [1, 3] was “(0.1%)” and the “ALT or AST >20 × ULN, number of subjects” value [1, 3] was 0. The “ALT or AST >ULN, number of subjects” value [1, 3] was 48, the “ALT or AST >ULN, percent of subjects” value [1, 3] was “(2.7%)” and the “SAEs, number of patients” value [1, 3] was 3. The “SAEs, percent of patients” value [1, 3] was 0.2%, the “ALT or AST >5 × ULN, number of subjects” value [1, 4] was 1 and the “ALT or AST >5 × ULN, percent of subjects” value [1, 4] was “(0.06%)^2”. For the same molecule, the “AE Nausea, number of patients” value [1, 5] was 26, the “AE Nausea, percent of patients” value [1, 5] was 1.5% and the “AE UTI, number of patients” value [1, 5] was 21. For the same molecule, the “AE UTI, percent of patients” value [1, 5] was 1.2%, the “≥1 On-Study AE, number of patients” value [1, 5] was 252 and the “≥1 On-Study AE, percent of patients” value [1, 5] was 14.2%. For the same molecule, the “Freedom from MBS at 2 hours, Difference (rimegepant minus placebo)” value ([2]; Study 303) was 8.3%, the “Pain Freedom at 2 hours, Difference (rimegepant minus placebo)” value ([2]; Study 303) was 10.3% and the “incidence of any single adverse event (AE) in the rimegepant group” value ([2]; Study 303) was at most 1.6%. The “patients with LFTs >3×ULN” value ([2]; Study 303) was “one”, the “Sustained Pain Relief 3 to 48 hrs” value ([2]; Study 303, n = 669) was 49.9% and the “Sustained Pain Relief 3 to 24 hrs” value [2, 6] was 56.4%. The “Sustained Pain Relief 4 to 24 hrs” value [2, 6] was 61.7%, the “Sustained Pain Relief 4 to 48 hrs” value [2, 6] was 54.7% and the “Pain Relief @ 2 hours” value ([2]; Study 303, secondary 1) was 59.3%. For the same molecule, the “Functional Disability at 2 hours” value ([2]; Study 303, secondary 2, self-report normal) was 38.1%, the “SP Relief (Sustained Pain Relief) 2 to 24 hours” value ([2]; Study 303, secondary 3) was 47.8% and the “MBS 2 to 24” value ([2]; Study 303, secondary 4, sustained freedom from MBS) was 27.1%. The “Prob of Rescue Meds in 24 hours” value ([2]; Study 303, secondary 5) was 14.2%, the “Functional Disability 2 to 24” value ([2]; Study 303, secondary 6) was 29.6% and the “SP Relief (Sustained Pain Relief) 2 to 48 hours” value ([2]; Study 303, secondary 7) was 42.2%. For the same molecule, the “MBS 2 to 48” value ([2]; Study 303, secondary 8) was 23.2%, the “Functional Disability 2 to 48” value ([2]; Study 303, secondary 9) was 26.0% and the “Photophobia @ 2 hours” value ([2]; Study 303, secondary 10, freedom from photophobia) was 33.4%. For the same molecule, the “Functional Disabilty @ 90 minutes” value ([2]; Study 303, secondary 11) was 30.2%, the “Pain Relief @ 90 minutes” value ([2]; Study 303, secondary 12) was 49.6% and the “SP Freedom 2 to 24 hours” value ([2]; Study 303, secondary 13) was 15.7%. The “MBS Freedom at 90 minutes” value ([2]; Study 303, secondary 14) was 27.4%, the “Pain Freedom @ 90 minutes” value ([2]; Study 303, secondary 15) was 15.1% and the “Phonophobia @ 2hours” value ([2]; Study 303, secondary 16, freedom from phonophobia) was 41.7%. The “SP Freedom 2 to 48 hours” value ([2]; Study 303, secondary 17) was 13.5%, the “Pain Relief at 60 minutes” value ([2]; Study 303, secondary 18) was 36.8% and the “Functional Disability at 60 minutes” value ([2]; Study 303, secondary 19) was 22.3%. The “Nausea @ 2 hours” value ([2]; Study 303, secondary 20, freedom from nausea) was 51.0%, the “Pain Relpase 2 to 48” value ([2]; Study 303, secondary 21) was 36.6% and the “Freedom from MBS at 2 hours” value [2, 7] was 35.1%. For the same molecule, the “Pain Freedom at 2 hours” value [2, 7] was 21.2% and the “clinical benefit through 48 hours on pain relief, pain freedom, most bothersome symptom, functional disability” value ([2]; Study 303, single dose, versus placebo) was “Lasting clinical benefit”.
